Data taken from ChEMBL document CHEMBL3045501, “Anti-inflammatory activity of 2,5-dihydroxycyclohepta-2,4,6-trienone in rats” (Med Chem Res, 2010).

How the values were obtained:
Rattus norvegicus [1] = test: Toxicity in Rattus norvegicus Wistar albino (rat) assessed as mortality at 65.16 to 68.78 X 10^2 umol/kg, po measured after 12 hr; assay type: organism-based; conditions: in vivo
Rattus norvegicus [2] = test: Toxicity in Rattus norvegicus Wistar albino (rat) assessed as lethargy at 57.92 X 10^2 umol/kg, po; assay type: organism-based; conditions: in vivo
Rattus norvegicus [3] = test: Anti-inflammatory activity in Rattus norvegicus Wistar albino (rat) assessed as inhibition of carrageenan-induced paw edema at 3.62 X 10^2 umol/kg, po administered 1 hr prior to carrageenan challenge through oral gavage measured 4 hr after carrageenan treatment by plethysmometer; assay type: functional
Rattus norvegicus [4] = test: Anti-inflammatory activity in Rattus norvegicus Wistar albino (rat) assessed as inhibition of carrageenan-induced paw edema at 3.62 X 10^2 umol/kg, po administered 1 hr prior to carrageenan challenge through oral gavage measured 2 hr after carrageenan treatment by plethysmometer; assay type: functional
Oryctolagus cuniculus [5] = test: (§1) Inhibition of hyaluronidase-induced capillary permeability in albino Oryctolagus cuniculus (rabbit) assessed as area of subcutaneous spreading of trypan blue at 7.24 x 10^2 umol/kg, po pretreated 1 hr prior to mixture of hyaluronidase and trypan blue challenge measured after 30 min (reference value: 498.8 mm'2); assay type: functional
Oryctolagus cuniculus [6] = test: as §1, with “5” for “30”, “288.5” for “498.8”; assay type: functional
Rattus norvegicus [7] = test: Anti-inflammatory activity in Rattus norvegicus Wistar albino (rat) assessed as inhibition of carrageenan-induced paw edema at 7.24 X 10^2 umol/kg, po administered 1 hr prior to carrageenan challenge through oral gavage measured measured 2 hr after carrageenan treatment by plethysmometer; assay type: functional
Rattus norvegicus [8] = test: Anti-inflammatory activity in Rattus norvegicus Wistar albino (rat) assessed as inhibition of carrageenan-induced paw edema at 3.62 X 10^2 umol/kg, po administered 1 hr prior to carrageenan challenge through oral gavage measured 1 hr after carrageenan treatment by plethysmometer; assay type: functional
Rattus norvegicus [9] = test: Anti-inflammatory activity in Rattus norvegicus Wistar albino (rat) assessed as inhibition of carrageenan-induced paw edema at 14.48 X 10^2 umol/kg, po administered 1 hr prior to carrageenan challenge through oral gavage measured measured 1 hr after carrageenan treatment by plethysmometer; assay type: functional
[10] = Toxicity in po dosed Rattus norvegicus Wistar albino (rat) assessed as mortality; assay type: organism-based; conditions: in vivo
Rattus norvegicus [11] = test: Toxicity in Rattus norvegicus Wistar albino (rat) assessed as drinking frequency at 18.1 to 36.2 X 10^2 umol/kg, po; assay type: organism-based; conditions: in vivo
Rattus norvegicus [12] = test: Anti-inflammatory activity in Rattus norvegicus Wistar albino (rat) assessed as inhibition of carrageenan-induced paw edema at 7.24 X 10^2 umol/kg, po administered 1 hr prior to carrageenan challenge through oral gavage measured measured 4 hr after carrageenan treatment by plethysmometer; assay type: functional
Rattus norvegicus [13] = test: Anti-inflammatory activity in Rattus norvegicus Wistar albino (rat) assessed as inhibition of carrageenan-induced paw edema at 14.48 X 10^2 umol/kg, po administered 1 hr prior to carrageenan challenge through oral gavage measured measured 2 hr after carrageenan treatment by plethysmometer; assay type: functional
Oryctolagus cuniculus [14] = test: as §1, with “3.62” for “7.24”, “5” for “30”, “288.5” for “498.8”; assay type: functional
[15] = Toxicity in Rattus norvegicus Wistar albino (rat) assessed as mortality at 61.54 X 10^2 umol/kg, po; assay type: organism-based; conditions: in vivo, read-out: Activity
Rattus norvegicus [16] = test: Anti-inflammatory activity in Rattus norvegicus Wistar albino (rat) assessed as inhibition of carrageenan-induced paw edema at 7.24 X 10^2 umol/kg, po administered 1 hr prior to carrageenan challenge through oral gavage measured measured 3 hr after carrageenan treatment by plethysmometer; assay type: functional
[17] = Toxicity in Rattus norvegicus Wistar albino (rat) assessed as mortality at 57.92 X 10^2 umol/kg, po; assay type: organism-based; conditions: in vivo, read-out: Activity
[18] = Toxicity in Rattus norvegicus Wistar albino (rat) assessed as mortality at 65.16 X 10^2 umol/kg, po; assay type: organism-based; conditions: in vivo, read-out: Activity
Rattus norvegicus [19] = test: Toxicity in Rattus norvegicus Wistar albino (rat) assessed as mortality at 18.1 to 54.3 X 10^2 umol/kg, po; assay type: organism-based; conditions: in vivo
Rattus norvegicus [20] = test: Toxicity in Rattus norvegicus Wistar albino (rat) assessed as animal posture at 61.54 umol/kg, po; assay type: organism-based; conditions: in vivo
Rattus norvegicus [21] = test: Anti-inflammatory activity in Rattus norvegicus Wistar albino (rat) assessed as inhibition of carrageenan-induced paw edema at 14.48 X 10^2 umol/kg, po administered 1 hr prior to carrageenan challenge through oral gavage measured measured 4 hr after carrageenan treatment by plethysmometer; assay type: functional
Rattus norvegicus [22] = test: Toxicity in Rattus norvegicus Wistar albino (rat) assessed as mortality at 68.78 X 10^2 umol/kg, po; assay type: organism-based; conditions: in vivo
Rattus norvegicus [23] = test: Anti-inflammatory activity in Rattus norvegicus Wistar albino (rat) assessed as inhibition of carrageenan-induced paw edema at 3.62 X 10^2 umol/kg, po administered 1 hr prior to carrageenan challenge through oral gavage measured 3 hr after carrageenan treatment by plethysmometer; assay type: functional
Rattus norvegicus [24] = test: Anti-inflammatory activity in Rattus norvegicus Wistar albino (rat) assessed as inhibition of carrageenan-induced paw edema at 14.48 X 10^2 umol/kg, po administered 1 hr prior to carrageenan challenge through oral gavage measured measured 3 hr after carrageenan treatment by plethysmometer; assay type: functional
Rattus norvegicus [25] = test: Anti-inflammatory activity in Rattus norvegicus Wistar albino (rat) assessed as inhibition of carrageenan-induced paw edema at 7.24 X 10^2 umol/kg, po administered 1 hr prior to carrageenan challenge through oral gavage measured measured 1 hr after carrageenan treatment by plethysmometer; assay type: functional
Oryctolagus cuniculus [26] = test: as §1, with “3.62” for “7.24”; assay type: functional
Rattus norvegicus [27] = test: Toxicity in Rattus norvegicus Wistar albino (rat) assessed as lethargy at 54.3 X 10^2 umol/kg, po; assay type: organism-based; conditions: in vivo
Rattus norvegicus [28] = test: Toxicity in Rattus norvegicus Wistar albino (rat) assessed as lethargy at 18.1 to 36.2 X 10^2 umol/kg, po; assay type: organism-based; conditions: in vivo
Rattus norvegicus [29] = test: Toxicity in Rattus norvegicus Wistar albino (rat) assessed as mortality at 69.8 umol/kg, po; assay type: organism-based; conditions: in vivo
Rattus norvegicus [30] = test: Anti-inflammatory activity in Rattus norvegicus Wistar albino (rat) assessed as inhibition of carrageenan-induced paw edema at 69.8 X 10^2 umol/kg, po administered 1 hr prior to carrageenan challenge through oral gavage measured measured 2 hr after carrageenan treatment by plethysmometer; assay type: functional
Rattus norvegicus [31] = test: Toxicity in Rattus norvegicus Wistar albino (rat) assessed as mortality at 139.6 umol/kg, po; assay type: organism-based; conditions: in vivo
Oryctolagus cuniculus [32] = test: as §1, with “27.9” for “7.24 x 10^2”; assay type: functional
Rattus norvegicus [33] = test: Anti-inflammatory activity in Rattus norvegicus Wistar albino (rat) assessed as inhibition of carrageenan-induced paw edema at 69.8 X 10^2 umol/kg, po administered 1 hr prior to carrageenan challenge through oral gavage measured measured 4 hr after carrageenan treatment by plethysmometer; assay type: functional
Rattus norvegicus [34] = test: Anti-inflammatory activity in Rattus norvegicus Wistar albino (rat) assessed as inhibition of carrageenan-induced paw edema at 69.8 X 10^2 umol/kg, po administered 1 hr prior to carrageenan challenge through oral gavage measured measured 1 hr after carrageenan treatment by plethysmometer; assay type: functional
Oryctolagus cuniculus [35] = test: as §1, with “27.9” for “7.24 x 10^2”, “5” for “30”, “288.5” for “498.8”; assay type: functional

## O=c1ccc(O)ccc1O
Rattus norvegicus [1]
  Activity: Toxic
Rattus norvegicus [2]
  Activity: Toxic
Rattus norvegicus [3]
  inhibition (INH): 42%
Rattus norvegicus [4]
  inhibition (INH): 52%
Oryctolagus cuniculus [5]
  Activity: 267.5 mm2
Oryctolagus cuniculus [6]
  Activity: 256 mm2
Rattus norvegicus [7]
  inhibition (INH): 72%
Rattus norvegicus [8]
  inhibition (INH): 48%
Rattus norvegicus [9]
  inhibition (INH): 76%
[10]
  LD50: 6440 µmol/kg
Rattus norvegicus [11]
  Activity: Non-toxic
Rattus norvegicus [12]
  inhibition (INH): 67%
Rattus norvegicus [13]
  inhibition (INH): 75%
Oryctolagus cuniculus [14]
  Activity: 212.5 mm2
[15]
  mortality: 33%
Rattus norvegicus [16]
  inhibition (INH): 79%
[17]
  mortality: 16%
[18]
  mortality: 66%
Rattus norvegicus [19]
  Activity: Non-toxic
Rattus norvegicus [20]
  Activity: Toxic
Rattus norvegicus [21]
  inhibition (INH): 75%
Rattus norvegicus [22]
  Activity: Toxic
Rattus norvegicus [23]
  inhibition (INH): 45%
Rattus norvegicus [24]
  inhibition (INH): 83%
Rattus norvegicus [25]
  inhibition (INH): 41%
Oryctolagus cuniculus [26]
  Activity: 196 mm2
Rattus norvegicus [27]
  Activity: Toxic
Rattus norvegicus [28]
  Activity: Non-toxic

## COc1ccc2c(c1)c(CC(=O)O)c(C)n2C(=O)c1ccc(Cl)cc1 [INDOMETHACIN]
Rattus norvegicus [29]
  Activity: Non-toxic
Rattus norvegicus [30]
  inhibition (INH): 51%
Rattus norvegicus [31]
  Activity: Toxic
Oryctolagus cuniculus [32]
  Activity: 279.3 mm2
Rattus norvegicus [33]
  inhibition (INH): 45%
Rattus norvegicus [34]
  inhibition (INH): 50%
Oryctolagus cuniculus [35]
  Activity: 227 mm2
